Assay results published in patent US7897741B2, “Cell cycle phase markers” (GE Healthcare UK Limited, priority 2004, dated 2011).

Experiments:
Type in all cases: cell-based, human
[1] = test system: U2OS stable cells expressing the pCORON1002-EGFP-C1-PSLD construct; assay: Chemical cell cycle block studies on EGFP-PSLD stable cell line (IN Cell Analyzer imaging); conditions: for % G1: % of cells per field of view in G1-phase; for % G2: % of cells per field of view in G2-phase; for % S: % of cells per field of view in S-phase; for Total cells: total number of cells per field of view
Description: Stable cells expressing the pCORON1002-EGFP-C1-PSLD construct, were seeded at 0.3×10^5/ml in 96-well Greiner plates using antibiotic-free medium (100 μl/well) and incubate for 16 hours.
For chemical block studies (Table 1), stable cells were exposed to olomoucine, roscovitine, nocodazole, mimosine, colcemid or colchicine (Sigma). Cells were fixed in 2% formalin and nuclei stained with hoechst (2 μM).
After high throughput imaging and analysis on the IN Cell Analyzer system (GEHC), data for average nuclear intensity and N:C ratio (EGFP signal), nuclear size (hoescht signal) and, where appropriate, nuclear signal intensity (BrdU) were obtained for the total number of individual cells in a field of view using hoescht as a nuclear mask and the IN Cell Analyzer 3000 cell cycle phase marker algorithm (GEHC). For each well, the total number of cells per field of view were catagorised into G1-phase (predominantly nuclear EGFP distribution; high EGFP-PSLD nuclear intensity and N:C ratio), S-phase (nuclear BrdU signal >3SDs above background; EGFP-PSLD N:C ratio around 1) and G2-phase (large nuclear size; low EGFP-PSLD N:C ratio).

[2] = test system: CRM1-mediated nuclear export; assay: Block of nuclear protein export: localization of GFP-HDHB and FLAG-HDHB in U2OS cells with LMB; conditions: in the presence of LMB (10 ng/ml, 3 h, with 10 μM cycloheximide); asynchronous, G1 and S phase U2OS cells
Description: Cell cycle synchronization was verified by flow cytometry as described previously (Taneja et al., J. Biol. Chem., (2002) 277, 40853-40861). In experiments to block nuclear protein export, cells were cultured for 3 h in DMEM containing 10 ng/ml of leptomycin B (LMB) and 10 μM cycloheximide (Calbiochem, San Diego, Calif.) to prevent new protein synthesis. Cells plated on glass coverslips were microinjected as described (Herbig et al., 1999) except that plasmid DNA rather than protein was injected.
For indirect immunofluorescence staining, cells were washed three times with phosphate buffered saline (PBS), fixed with 3.7% formaldehyde in PBS for 20 min, permeabilized for 5 min in 0.2% Triton X-100, and incubated with 10% FBS in PBS for 45 min. FLAG-HDHB was detected with mouse monoclonal anti-FLAG antibody (Sigma-Aldrich), 1:100 in PBS plus 10% FBS for 2 h at room temperature. After washing, cells were incubated with Texas Red-conjugated goat anti-mouse secondary antibody (Jackson ImmunoResearch Laboratories, West Grove, Pa.) at 1:100 in PBS plus 10% FBS for 1 h at room temperature. […] The subcellular distribution of each protein was quantitatively evaluated in at least two independent experiments.
For GFP fluorescence, cells were washed three times with phosphate-buffered saline (PBS), fixed with 3.7% formaldehyde containing 2 μM Hoechst 33258 for 20 min and imaged and evaluated as above.

[3] = test system: EGFP-PSLD stable cell lines (U2OS); assay: Kinetic imaging (24 hours) of EGFP-PSLD stable cell lines treated with olomoucine; conditions: cells arrested in G2, without passing through mitosis; kinetic imaging over 24 hours
Description: Where appropriate, for high throughput imaging, kinetic imaging (24 hr) and analysis in multiwell plate format of stable cell lines flourescence microscopy was conducted using a high throughput confocal imaging system (IN Cell Analyzer 1000 or IN Cell Analyzer 3000, GE Healthcare, Amersham, UK) on cells transfected with pCORON1002-EGFP-C1-PSLD, pCORON1002-EGFP-C1-βGal-PSLD or redFP derivatives of these vectors. Images were analysed using the cell cycle phase marker algorithm (GE Health Care).

## CN[C@H]1CCc2cc(OC)c(OC)c(OC)c2-c2ccc(OC)c(=O)cc21 [Colcemid]
[1]; 0.3 μM
  % G1: 16%
  % G2: 43%
  % S: 41%
  Total cells: 490
[1]; 1.2 μM
  % G1: 8%
  % G2: 59%
  % S: 32%
  Total cells: 450

## COc1cc2c(c(OC)c1OC)-c1ccc(OC)c(=O)cc1[C@@H](NC(C)=O)CC2 [Colchicine]
[1]; 4 μM
  % G1: 9%
  % G2: 55%
  % S: 36%
  Total cells: 467
[1]; 100 μM
  % G1: 12%
  % G2: 57%
  % S: 32%
  Total cells: 439

## N[C@@H](Cn1ccc(=O)c(O)c1)C(=O)O [L-mimosine]
[1]; 2 mM
  % G1: 6%
  % G2: 26%
  % S: 68%
  Total cells: 1710

## CCC(=C/[C@H](C)C/C=C/C(C)=C/[C@@H](C)C(=O)[C@@H](C)[C@H](O)[C@@H](C)C/C(C)=C/C(=O)O)/C=C/[C@@H]1OC(=O)C=C[C@@H]1C [LMB, Leptomycin B]
[2]
  Localization of GFP-HDHB and FLAG-HDHB fusion proteins: accumulated in the nucleus independently of the cell cycle

## COC(=O)Nc1nc2ccc(C(=O)c3cccs3)cc2[nH]1 [Nocodazole]
[1]; 3 μM
  % G1: 6%
  % G2: 61%
  % S: 33%
  Total cells: 606

## Cn1cnc2c(NCc3ccccc3)nc(NCCO)nc21 [Olomoucine]
[3]
  Time for EGFP-PSLD signal to redistribute from the cytoplasm to the nucleus: 4 to 8 h
[1]; 500 μM
  % G1: 63%
  % G2: 4%
  % S: 33%
  Total cells: 600

## CC[C@H](CO)Nc1nc(NCc2ccccc2)c2ncn(C(C)C)c2n1 [Roscovitin]
[1]; 100 μM
  % G1: 52%
  % G2: 13%
  % S: 36%
  Total cells: 693
[1]; EGFP-PSLD stable cell lines, refers to Table 1
  EGFP-PSLD distribution and cell cycle arrest: predominantly nuclear distribution of EGFP-PSLD and arrest in G1
